Results from PubChem BioAssay AID248 (DTP/NCI, 2004).
Where “and” joins values, the source holds several entries; their conditions need not be identical. Equal values may be shown once. Toxic doses and inconclusive results are not listed.

Tested on: L1210 leukemia ip in BDF1 mice, survival T/C
Assay: NCI In Vivo Anticancer Drug Screen. Data for tumor model L1210 Leukemia (intraperitoneal) in B6D2F1 (BDF1) mice
Settings: endpoint: mean survival time, higher = longer survival
In short: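 Transplantable tumor model; survival measured in treated vs vehicle control mice. Value = treated/control.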

[1] = dose: 100.0 mg/kg/injection, schedule: Q04DX003 (ip), vehicle: saline with Tween-80
[2] = dose: 200.0 mg/kg/injection, schedule: Q04DX003 (ip), vehicle: saline with Tween-80
[3] = dose: 400.0 mg/kg/injection, schedule: Q04DX003 (ip), vehicle: saline with Tween-80

With `CC[n+]1cccc(NC(=O)c2ccc(NC(=O)c3ccc(C(=O)Nc4ccc(C(=O)Nc5ccc[n+](CC)c5)cc4)cc3)cc2)c1` the T/C (dose: 0.25 mg/kg/injection, schedule: Q01DX009 (ip), vehicle: saline) was 110 % of control, the T/C (dose: 4.0 mg/kg/injection, schedule: Q01DX001 (ip), vehicle: saline) was 115 % of control and 117 % of control and the T/C (dose: 4.0 mg/kg/injection, schedule: Q01DX009 (ip), vehicle: saline) was 157 % of control and 160 % of control. For the same compound, the T/C (dose: 4.4 mg/kg/injection, schedule: Q01DX Z (ip), vehicle: carboxymethylcellulose (CMC)) was 120 % of control, the T/C (dose: 6.7 mg/kg/injection, schedule: Q01DX Z (ip), vehicle: carboxymethylcellulose (CMC)) was 92 % of control and the T/C (dose: 8.0 mg/kg/injection, schedule: Q01DX009 (ip), vehicle: saline) was 228 % of control. The T/C (dose: 16.0 mg/kg/injection, schedule: Q01DX009 (ip), vehicle: saline) was 121 % of control and 124 % of control, the T/C (dose: 32.0 mg/kg/injection, schedule: Q01DX001 (ip), vehicle: saline) was 189 % of control and the T/C (dose: 64.0 mg/kg/injection, schedule: Q01DX001 (ip), vehicle: saline) was 229 % of control.

For `CC1(C)C(O)(C#N)C(C)(C)C1(O)C#N` (centres undefined), the T/C (dose: 3.13 mg/kg/injection, schedule: Q01DX009 (ip), vehicle: saline) was 107 % of control, the T/C (dose: 6.25 mg/kg/injection, schedule: Q01DX009 (ip), vehicle: saline) was 115 % of control and the T/C (dose: 12.5 mg/kg/injection, schedule: Q01DX009 (ip), vehicle: saline) was 105 % of control.

For `CC[C@@]1(O)C[C@H](OC2CC(N(C)C)C(O)C(C)O2)c2c(O)c3c(c(O)c2[C@H]1OC1CC(N(C)C)C(O)C(C)O1)C(=O)c1cccc(O)c1C3=O` (some centres undefined), the T/C (dose: 0.5 mg/kg/injection, schedule: Q01DX009 (ip), vehicle: saline) was 110 % of control.

For `C=CCN1CCC(C(=O)CC)(c2ccccc2)CC1`, the T/C (dose: 12.5 mg/kg/injection, schedule: Q01DX009 (ip), vehicle: Klucel (hydroxypropylcellulose) (HPC)) was 100 % of control, the T/C (dose: 25.0 mg/kg/injection, schedule: Q01DX009 (ip), vehicle: Klucel (hydroxypropylcellulose) (HPC)) was 98 % of control and the T/C (dose: 50.0 mg/kg/injection, schedule: Q01DX009 (ip), vehicle: Klucel (hydroxypropylcellulose) (HPC)) was 106 % of control.

`NC(N)=N/N=C(/c1ccccc1)c1ccc(Cl)cc1` was tested, and the T/C (dose: 15.0 mg/kg/injection, schedule: Q01DX Z (ip), vehicle: saline) was 90 % of control, the T/C (dose: 30.0 mg/kg/injection, schedule: Q01DX Z (ip), vehicle: saline) was 92 % of control and the T/C (dose: 60.0 mg/kg/injection, schedule: Q01DX Z (ip), vehicle: saline) was 97 % of control. The T/C (dose: 60.0 mg/kg/injection, schedule: Q01DX Z (oral), vehicle: saline) was 95 % of control, the T/C (dose: 120.0 mg/kg/injection, schedule: Q01DX Z (ip), vehicle: saline) was 110 % of control and the T/C (dose: 120.0 mg/kg/injection, schedule: Q01DX Z (oral), vehicle: saline) was 92 % of control. For the same compound, the T/C (dose: 240.0 mg/kg/injection, schedule: Q01DX Z (ip), vehicle: saline) was 108 % of control, the T/C (dose: 240.0 mg/kg/injection, schedule: Q01DX Z (oral), vehicle: saline) was 107 % of control and the T/C (dose: 480.0 mg/kg/injection, schedule: Q01DX010 (oral), vehicle: saline) was 96 % of control. The T/C (dose: 960.0 mg/kg/injection, schedule: Q01DX010 (oral), vehicle: saline) was 91 % of control.

`CCN1c2ccccc2Sc2ccccc21` was tested, and the T/C (dose: 50.0 mg/kg/injection, schedule: Q01DX001 (ip), vehicle: carboxymethylcellulose (CMC)) was 98 % of control, the T/C (dose: 100.0 mg/kg/injection, schedule: Q01DX001 (ip), vehicle: carboxymethylcellulose (CMC)) was 98 % of control and the T/C [1] was 92 % of control. For the same compound, the T/C (dose: 200.0 mg/kg/injection, schedule: Q01DX001 (ip), vehicle: carboxymethylcellulose (CMC)) was 102 % of control, the T/C [2] was 97 % of control and the T/C (dose: 400.0 mg/kg/injection, schedule: Q01DX001 (ip), vehicle: carboxymethylcellulose (CMC)) was 98 % of control. For the same compound, the T/C [3] was 100 % of control.

`CCOc1ccc(Br)cc1` was tested, and the T/C (dose: 100.0 mg/kg/injection, schedule: Q01DX001 (ip), vehicle: saline with Tween-80) was 91 % of control, the T/C (dose: 100.0 mg/kg/injection, schedule: Q01DX009 (ip), vehicle: saline with Tween-80) was 95 % of control and 105 % of control and the T/C (dose: 100.0 mg/kg/injection, schedule: Q04DX002 (ip), vehicle: saline with Tween-80) was 97 % of control and 101 % of control. For the same compound, the T/C [1] was 105 % of control, the T/C (dose: 200.0 mg/kg/injection, schedule: Q01DX001 (ip), vehicle: saline with Tween-80) was 87 % of control and the T/C (dose: 200.0 mg/kg/injection, schedule: Q01DX009 (ip), vehicle: saline with Tween-80) was 105 % of control and 92 % of control. The T/C (dose: 200.0 mg/kg/injection, schedule: Q04DX002 (ip), vehicle: saline with Tween-80) was 119 % of control and 92 % of control, the T/C [2] was 94 % of control and the T/C (dose: 400.0 mg/kg/injection, schedule: Q01DX001 (ip), vehicle: saline with Tween-80) was 89 % of control. For the same compound, the T/C (dose: 400.0 mg/kg/injection, schedule: Q04DX002 (ip), vehicle: saline with Tween-80) was 99 % of control and 91 % of control and the T/C [3] was 101 % of control.
